Values of other authors, collected in patent publication US20150045432A1, “DIETARY SUPPLEMENT COMPRISING AMINO ACIDS IN A PALATABLE LIQUID FORMULATION THAT PROMOTES RESTFUL SLEEP, RECOVERY FROM STRESS AND EXERCISE AND STRENGTHENS THE IMMUNE SYSTEM” (North Health Essentials, LLC, priority 2013, published 2015).

What was measured:
[1] = rats
[2] = taken within an hour before going to bed, versus those who did not take the amino acid
[3] = 3 grams of glycine, bolus before bedtime
[4] = after 60 minutes of administration, compared to water or L-threonine

SMILES | alpha waves [4] | beta waves [4] | immunity under stress conditions (in vivo) | time after administration within which relaxant effects could be seen (induce relaxation and diminish anxiety) [h] | distribution in the brain [1] | brainwave patterns of non-REM sleep and sleep length [2] | daytime sleepiness [3] | sleep quality and efficacy [3]
NCCCC(=O)O [GABA, gamma-aminobutyric acid] | significantly increases alpha waves | decreases beta waves | could enhance immunity | ≤ 1 |  |  |  | 
NCC(=O)O [glycine] |  |  |  |  | accumulates in the pineal gland | showed brainwave patterns associated with non-REM sleep sooner and slept longer | lessened daytime sleepiness | improved sleep quality and efficacy
